Source: US10034886B2, “GLP-1 receptor modulators” (Celgene International II SÀRL, priority 2014, dated 2018)
Where two headings read alike, the source gives them in different places.

Target: T1, GLP-1R (Homo sapiens, UniProt P43220)
T1 construct: host or cells: GLP-1R CRE-bla CHO-K1 cells
Assay: EC20 GLP-1(9-36) PAM cAMP assay: dose response of compound in the presence of fixed concentration of GLP-1(9-36)
Assay type: cell-based
Settings: GLP-1R CRE-bla CHO-K1 cells, read-out: EC20 GLP-1(9-36) PAM EC50
Outline: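 GLP-1R CRE-bla CHO-K1 cells treated 30 min at 37 °C with 12-point compound dose response plus fixed EC20 GLP-1(9-36), with IBMX, in HBSS/HEPES/0.1% BSA pH 7.4. Total cAMP measured by luminescent detection against standard curve; EC50 and Emax from non-linear regression.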

[1] = dose response of compound in presence of fixed concentration of GLP-1(9-36)
[2] = compound dose response with fixed concentration of GLP-1(9-36)

T1 sequence (P43220 24-463): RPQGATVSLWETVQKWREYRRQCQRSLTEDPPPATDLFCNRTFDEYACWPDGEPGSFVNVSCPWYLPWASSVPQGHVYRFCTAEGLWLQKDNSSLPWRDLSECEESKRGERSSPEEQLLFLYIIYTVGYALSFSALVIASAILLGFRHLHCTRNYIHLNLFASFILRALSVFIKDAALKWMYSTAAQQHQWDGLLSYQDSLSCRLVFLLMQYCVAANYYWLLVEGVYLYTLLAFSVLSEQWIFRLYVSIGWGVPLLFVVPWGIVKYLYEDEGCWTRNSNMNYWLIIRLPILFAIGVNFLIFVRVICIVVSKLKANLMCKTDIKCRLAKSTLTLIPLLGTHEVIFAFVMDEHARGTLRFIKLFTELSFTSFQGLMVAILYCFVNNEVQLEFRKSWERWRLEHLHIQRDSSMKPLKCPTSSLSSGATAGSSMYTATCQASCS
T1 sequence (P01275 100-127 partner limits assumed): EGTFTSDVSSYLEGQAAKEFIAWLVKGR

Row | SMILES | EC50 [1] | EC50 [2]
1 | CCCCCCCOc1ccc(-c2cnc(-c3ccc(C[C@H](NC(=O)/C=C/c4ccc(OC)cc4)C(=O)N4CC(C(=O)O)C4)cc3)nc2)cc1 [Compound 1103] | 0.8 to 2.5 µM | 
2 | CCCCCCCOc1ccc(-c2cnc(-c3ccc(C[C@H](NC(=O)c4ccc(C(C)(C)C)s4)C(=O)N[C@@H](C(=O)O)[C@H](C)O)cc3)nc2)cc1 [Compound 664] | 2.5 to 5 µM | 
3 | CC(C)(C)c1ccc(C(=O)N[C@@H](Cc2ccc(-c3ncc(N4CCC(c5ccc(Cl)cc5)CC4)cn3)cc2)C(=O)N2CC(C(=O)O)C2)s1 [Compound 1478] |  | 0.8 to 2.5 µM
4 | CCCCCCCOc1ccc(-c2cnc(-c3ccc(C[C@H](NC(=O)c4ccc(C(C)(C)C)cc4)C(=O)N4CC(OC)CC4C(=O)O)cc3)nc2)cc1 (stereo partly drawn) [Compound 624] | < 0.8 µM | 
5 | CC1(C)CCC(C2CCN(c3cnc(-c4ccc(C[C@H](NC(=O)c5ccc(C(C)(C)C)s5)C(=O)N5CC(C(=O)O)C5)cc4)nc3)CC2)CC1 [Compound 1424] |  | < 0.8 µM
6 | CC(C)CCc1noc(-c2cnc(-c3ccc(C[C@H](NC(=O)c4ccc(C(C)(C)C)cc4)C(=O)NCCC(=O)O)cc3)nc2)n1 [Compound 749] | 0.8 to 2.5 µM | 
7 | CC(C)(C)c1ccc(C(=O)N[C@@H](Cc2ccc(-c3ncc(-c4nc(-c5ccc(Cl)c(Cl)c5)no4)cn3)cc2)C(=O)NCCC(=O)O)cc1 [Compound 752] | 5 to 10 µM | 
8 | CCc1ccc(-c2ccc(-c3cnc(-c4ccc(C[C@H](NC(=O)c5ccc(C(C)(C)C)s5)C(=O)N5CC(C(=O)O)C5)cc4)nc3)c(F)c2)cc1 [Compound 1189] | < 0.8 µM | 
9 | CC(C)(C)CCOc1ccc(-c2cnc(-c3ccc(C[C@H](NC(=O)c4ccc(C(C)(C)C)s4)C(=O)N4CC(C(=O)O)C4)cc3)nc2)cc1 [Compound 796] | < 0.8 µM | 
10 | CC[C@H]1CC[C@H](c2ccc(-c3cnc(-c4ccc(C[C@H](NC(=O)c5ccc(C(C)(C)C)s5)C(=O)N5C6CCC5C(C(=O)O)C6)cc4)nc3)cc2)CC1 (stereo partly drawn) [Compound 1321] |  | 0.8 to 2.5 µM
11 | CCCCCCCOc1ccc(-c2cnc(-c3ccc(C[C@H](NC(=O)c4ccc(C(C)(C)C)cc4)C(=O)NC(Cn4cncn4)C(=O)O)cc3)nc2)cc1 (stereo partly drawn) [Compound 467, 2-((S)-2-(4-(tert-butyl)benzamido)-3-(4-(5-(4-(heptyloxy)phenyl)pyrimidin-2-yl)phenyl)propanamido)-3-(1H-1,2,4-triazol-1-yl)propanoic acid] | < 0.8 µM | 
12 | CCCCCCCOc1ccc(-c2cnc(-c3ccc(C[C@H](NC(=O)c4ccc(C(C)C)cc4)C(=O)N4CCC[C@H]4C(=O)O)cc3)nc2)cc1 [Compound 1074] | 0.8 to 2.5 µM | 
13 | CCCCCCCOc1ccc(-c2cnc(-c3ccc(C[C@H](NC(=O)c4ccc(C(C)(C)C)s4)C(=O)NC(C(=O)O)c4cccc(S(C)(=O)=O)c4)cc3)nc2)cc1 (stereo partly drawn) [Compound 501] | < 0.8 µM | 
14 | C[C@@H](NC(=O)[C@H](Cc1ccc(-c2ncc(/C=C/c3ccsc3)cn2)cc1)NC(=O)c1ccc(C(C)(C)C)s1)C(=O)O [Compound 1257] |  | 2.5 to 5 µM
15 | C[C@@H](NC(=O)[C@H](Cc1ccc(-c2ncc(-c3ccc(C(F)(F)F)cc3)cn2)cc1)NC(=O)c1ccc(C(C)(C)C)s1)C(=O)O [Compound 742] | 2.5 to 5 µM | 
16 | CCC[C@H]1CC[C@H](C2CCN(c3cnc(-c4ccc(CC(NC(=O)c5ccc(C(C)(C)C)s5)C(=O)NS(=O)(=O)C(C)C)cc4)nc3)CC2)CC1 (stereo partly drawn) [Compound 1545] |  | < 0.8 µM
17 | CC(C)COc1ncc(-c2cnc(-c3ccc(C[C@H](NC(=O)c4ccc(C(C)(C)C)s4)C(=O)N[C@H](C)C(=O)O)cc3)nc2)cc1Cl [Compound 1038] | 2.5 to 5 µM | 
18 | C[C@@H](NC(=O)[C@H](Cc1ccc(-c2ncc(-c3ccc4c(c3)C(C)(C)c3ccccc3-4)cn2)cc1)NC(=O)c1ccc(C(C)(C)C)s1)C(=O)O [Compound 1304] |  | 0.8 to 2.5 µM
19 | CCCCCCCOc1ccc(-c2cnc(-c3ccc(C[C@H](NC(=O)c4ccc(C(C)(C)C)nc4)C(=O)N4CC(C(=O)O)C4)cc3)nc2)cc1 [Compound 1117] | 0.8 to 2.5 µM | 
20 | CCCc1ccc(C(=O)N[C@@H](Cc2ccc(-c3ncc(-c4ccc(OCCCC(C)C)cc4)cn3)cc2)C(=O)N2CC(C(=O)O)C2)cc1 [Compound 1232] |  | 0.8 to 2.5 µM
21 | CCCc1ccc(-c2ccc(-c3cnc(-c4ccc(C[C@H](NC(=O)c5ccc(CC(C)C)s5)C(=O)N5CC(C(=O)O)C5)cc4)nc3)c(F)c2)cc1 [Compound 1405] |  | < 0.8 µM
22 | CCCCCCCOc1ccc(-c2cnc(-c3ccc(C[C@H](NC(=O)c4ccc(C(C)(C)C)s4)C(=O)N[C@@H](Cc4ccccn4)C(=O)O)cc3)nc2)cc1 [Compound 628] | 0.8 to 2.5 µM | 
23 | CCC[C@H]1CC[C@H](C2CCN(c3cnc(-c4ccc(CC(NC(=O)c5ccc(C(C)(C)C)s5)C(=O)NS(=O)(=O)CC(=O)OC)cc4)nc3)CC2)CC1 (stereo partly drawn) [Compound 1543] |  | < 0.8 µM
24 | COc1cc(/C=C/c2cnc(-c3ccc(C[C@H](NC(=O)c4ccc(C(C)(C)C)s4)C(=O)N[C@H](C)C(=O)O)cc3)nc2)cc(OC)c1 [Compound 1259] |  | 5 to 10 µM

Row | SMILES | EC50 [1] | EC50 [2]
25 | CCCCCCCOc1ccc(-c2cnc(-c3ccc(C[C@H](NC(=O)c4ccc(C(C)(C)C)s4)C(=O)Nc4ccc(C(F)(F)F)cc4)cc3)nc2)cc1 [Compound 965] | 5 to 10 µM | 
26 | CCCCc1ccc(C2CCN(c3cnc(-c4ccc(C[C@H](NC(=O)c5ccc(C(C)(C)C)s5)C(=O)N5CC(C(=O)O)C5)cc4)nc3)CC2)cc1 [Compound 1412, (S)-1-(2-(5-(tert-butyl)thiophene-2-carboxamido)-3-(4-(5-(4-(4-butylphenyl)-piperidin-1-yl)pyrimidin-2-yl)phenyl)propanoyl)azetidine-3-carboxylic acid] |  | < 0.8 µM
27 | CCCCCCCOc1ccc(-c2cnc(-c3ccc(C[C@H](NC(=O)c4ccc(C(C)(C)C)cc4)C(=O)N[C@@H](CCC(N)=O)C(=O)O)cc3)nc2)cc1 [Compound 399] | < 0.8 µM | 
28 | C[C@@H](NC(=O)[C@H](Cc1ccc(-c2ncc(-c3ccc(C4=CCC(F)(F)CC4)cc3)cn2)cc1)NC(=O)c1ccc(C(C)(C)C)s1)C(=O)O [Compound 1151] | < 0.8 µM | 
29 | CCCCCCCOc1ccc(-c2cnc(-c3ccc(C[C@H](NC(=O)c4ccc(C(C)(C)C)s4)C(=O)NC(C(=O)O)C(O)C4CCCCC4)cc3)nc2)cc1 (stereo partly drawn) [Compound 914] | 2.5 to 5 µM | 
30 | CCCCCCCOc1ccc(-c2cnc(-c3ccc(C[C@H](NC(=O)c4ccc(OCCC)cc4)C(=O)N[C@H](C)C(=O)O)cc3)nc2)cc1 [Compound 982] | 5 to 10 µM | 
31 | CCC[C@H]1CC[C@H](C2CCN(c3cnc(-c4ccc(C[C@H](NC(=O)c5ccc(C(C)(C)C)s5)C(=O)N5CCCC[C@H]5C(=O)O)cc4)nc3)CC2)CC1 [Compound 1455] |  | < 0.8 µM
32 | CC(C)[C@H]1CC[C@H](c2ccc(-c3cnc(-c4ccc(C[C@H](NC(=O)c5ccc(C(C)(C)C)s5)C(=O)N5CC(C(=O)O)C5)cc4)nc3)cc2)CC1 [Compound 1178] | < 0.8 µM | 
33 | CCCCCCCOc1ccc(-c2cnc(-c3ccc(C[C@H](NC(=O)c4ccc5c(c4)OCCO5)C(=O)N[C@H](C)C(=O)O)cc3)nc2)cc1 [Compound 980] | 0.8 to 2.5 µM | 
34 | CCCCCCCOc1ccc(-c2cnc(-c3ccc(C[C@H](NC(=O)c4ccc(C(C)(C)C)s4)C(=O)O)cc3)c(C)c2)cc1 [Compound 946] | 2.5 to 5 µM | 
35 | CCCCCCCOc1ccc(-c2cnc(-c3ccc(C[C@H](NC(=O)/C=C/c4ccc(OC)cc4)C(=O)N[C@H](C)C(=O)O)cc3)nc2)cc1 [Compound 1047] | 2.5 to 5 µM | 
36 | CCCCCCCOc1ccc(-c2cnc(-c3ccc(C[C@H](NC(=O)c4ccc(C(C)(C)C)s4)C(=O)NCC4(O)CCN(C)C4)cc3)nc2)cc1 (stereo partly drawn) [Compound 894] | 5 to 10 µM | 
37 | CCCCOc1ccc(CC(=O)N[C@@H](Cc2ccc(-c3ncc(-c4ccc([C@H]5CC[C@H](CC)CC5)cc4)cn3)cc2)C(=O)N2CC(C(=O)O)C2)cc1 [Compound 1161] | 0.8 to 2.5 µM | 
38 | CCCCCCCOc1ccc(-c2cnc(-c3ccc(C[C@H](NC(=O)c4ccc(C(C)(C)C)cc4)C(=O)NC(C(=O)O)c4ccc(OC)cc4)cc3)nc2)cc1 (stereo partly drawn) [Compound 543] | < 0.8 µM | 
39 | CCCCCCCOc1ccc(-c2cnc(-c3ccc(C[C@H](NC(=O)c4ccc(C(C)(C)C)cc4)C(=O)NC(C(=O)O)c4nc(C)oc4C)cc3)nc2)cc1 (stereo partly drawn) [Compound 536] | 0.8 to 2.5 µM | 
40 | CCCCCCCOc1ccc(-c2cnc(-c3ccc(C[C@H](NC(=O)c4ccc(C(C)(C)C)cc4)C(=O)NC(CC(=O)O)c4ccc(OC)cc4)cc3)nc2)cc1 (stereo partly drawn) [Compound 552] | 0.8 to 2.5 µM | 
41 | CCCCCCCOc1ccc(-c2cnc(-c3ccc(C[C@H](NC(=O)c4ccc(CCC)cc4)C(=O)N4CC[C@H](C(=O)O)C4)cc3)nc2)cc1 [Compound 853] | 0.8 to 2.5 µM | 
42 | CC(C)(C)c1ccc(C(=O)N[C@@H](Cc2ccc(-c3ncc(-c4ccc(-c5ccc(C6CCCCC6)cc5)cc4F)cn3)cc2)C(=O)N2CC(C(=O)O)C2)s1 [Compound 1212] |  | < 0.8 µM
43 | CCCCCCCOc1ccc(-c2cnc(-c3ccc(C[C@H](NC(=O)c4ccc(O)c(F)c4)C(=O)NC(C(=O)O)C(O)c4ccccc4)cc3)nc2)cc1 (stereo partly drawn) [Compound 960] | 0.8 to 2.5 µM | 
44 | CCCCCCCOc1ccc(-c2cnc(-c3ccc(C[C@H](NC(=O)c4ccc(C(C)(C)C)cc4)C(=O)N[C@@H](CC(=O)N[C@@H](CO)C(=O)O)C(=O)O)cc3)nc2)cc1 [Compound 481] | 0.8 to 2.5 µM | 
45 | CC[C@H]1CC[C@H](c2ccc(-c3cnc(-c4ccc(C[C@H](NC(=O)c5ccc(C(C)C)s5)C(=O)O)cc4)nc3)cc2)CC1 [Compound 1389] |  | < 0.8 µM
46 | COCCc1ccc(OCc2ccc(-c3cnc(-c4ccc(C[C@H](NC(=O)c5ccc(C(C)(C)C)s5)C(=O)N[C@H](C)C(=O)O)cc4)nc3)cc2)cc1 [Compound 1053] | 2.5 to 5 µM | 
47 | CCCCCCCOc1ccc(-c2cnc(-c3ccc(C[C@H](NC(=O)c4ccc(CC(C)C)cc4)C(=O)N4CCC[C@H]4C(=O)O)cc3)nc2)cc1 [Compound 1076] | 2.5 to 5 µM | 
48 | CC[C@H]1CC[C@H](c2ccc(-c3ccc(-c4ccc(C[C@H](NC(=O)c5ccc(C(C)(C)C)s5)C(=O)N5CC(C(=O)O)C5)cc4)nc3)cc2)CC1 [Compound 1334] |  | < 0.8 µM
